ChEMBL document CHEMBL1201862, “PubChem BioAssay data set” (2004)
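48-hour exposure; five concentrations; linearly interpolated endpoints. GI50 is the concentration that inhibits growth by half.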 Activity calls are given as the source filed them. Cut-off read from the data, not from the text of the source: active = GI50 up to about 1.1 µM and inactive = higher.

How the values were obtained:
Assay in all cases: DTP human tumour cell line panel, 48 h
TK-10 = test system: TK-10
SK-MEL-28 = test system: SK-MEL-28
LOX IMVI = test system: LOX IMVI
MDA-N = test system: MDA-N
ACHN = test system: ACHN
A549 = test system: A549
NCI/ADR-RES = test system: NCI/ADR-RES
UO-31 = test system: UO-31
NCI-H522 = test system: NCI-H522
HOP-62 = test system: HOP-62
SK-OV-3 = test system: SK-OV-3
KM12 = test system: KM12
Hs-578T = test system: Hs-578T
OVCAR-5 = test system: OVCAR-5
786-0 = test system: 786-0
MCF7 = test system: MCF7
T47D = test system: T47D
NCI-H23 = test system: NCI-H23
BT-549 = test system: BT-549

| SMILES | GI50 (TK-10) | GI50 (SK-MEL-28) | GI50 (LOX IMVI) | GI50 (MDA-N) | GI50 (ACHN) | GI50 (A549) | GI50 (NCI/ADR-RES) | GI50 (UO-31) | GI50 (NCI-H522) | GI50 (HOP-62) | GI50 (SK-OV-3) | GI50 (KM12) | GI50 (Hs-578T) | GI50 (OVCAR-5) | GI50 (786-0) | GI50 (MCF7) | GI50 (T47D) | GI50 (NCI-H23) | GI50 (BT-549) |
| --- | --- | --- | --- | --- | --- | --- | --- | --- | --- | --- | --- | --- | --- | --- | --- | --- | --- | --- | --- |
| CCC1(O)CC(OC2CC(N(C)C)C(OC3CC(O)C(OC4CCC(=O)C(C)O4)C(C)O3)C(C)O2)c2c(O)c3c(c(O)c2C1C(=O)OC)C(=O)c1cccc(O)c1C3=O (stereo not drawn) | 0.015 µM (active) | 0.00995 µM (active) | 0.00184 µM (active) | 0.00482 µM (active) | 0.00134 µM (active) | 0.00339 µM (active) | 0.0109 µM (active) | 0.00508 µM (active) | 0.00385 µM (active) | 0.0106 µM (active) | 0.00565 µM (active) | 0.00344 µM (active) | 0.00221 µM (active) | 0.00575 µM (active) | 0.0016 µM (active) | 0.01 µM (active) | 0.0154 µM (active) | 0.00589 µM (active) |  |
| O=C(O)c1cc2ccccc2c(/N=N\c2cc(C(F)(F)F)ccc2Cl)c1O | > 100 µM (inactive) | 83 µM (inactive) |  | > 100 µM (inactive) | 46.5 µM (inactive) | 27.9 µM (inactive) | 76.2 µM (inactive) | 33.4 µM (inactive) | > 100 µM (inactive) | 38.1 µM (inactive) | > 100 µM (inactive) | 23.8 µM (inactive) | 37.6 µM (inactive) | > 100 µM (inactive) | 56.1 µM (inactive) | > 100 µM (inactive) | 48.8 µM (inactive) | 56.5 µM (inactive) |  |
| N=C(N)Nc1ccc(CC(N)C(=O)NCC(=O)C(CC(=O)O)c2ncc(NC(=O)C(F)(F)F)o2)cc1 (stereo not drawn) | > 25 µM (inactive) | > 25 µM (inactive) | > 25 µM (inactive) |  | > 25 µM (inactive) | > 25 µM (inactive) | > 25 µM (inactive) | > 25 µM (inactive) | > 25 µM (inactive) | > 25 µM (inactive) | > 25 µM (inactive) | > 25 µM (inactive) | > 25 µM (inactive) | > 25 µM (inactive) | > 25 µM (inactive) | 18.4 µM (inactive) | > 25 µM (inactive) | > 25 µM (inactive) | > 25 µM (inactive) |
| COc1cc(/C=C/c2ccc(O)c(OC)c2)cc(OC)c1 | 20.2 µM (inactive) | 33.1 µM (inactive) |  | 17.4 µM (inactive) | 22.2 µM (inactive) | 25.6 µM (inactive) | 31 µM (inactive) | 20 µM (inactive) |  | 50.6 µM (inactive) | 26.9 µM (inactive) | 20.8 µM (inactive) | 14.2 µM (inactive) | 31.6 µM (inactive) | 45.5 µM (inactive) | 26.2 µM (inactive) | 33.9 µM (inactive) | 26.5 µM (inactive) |  |
| c1ccc(NC2(c3nnnn3C3CCCCC3)CCNCC2)cc1 | 16.8 µM (inactive) | 17.9 µM (inactive) | 15.7 µM (inactive) |  | 20.1 µM (inactive) | 32.4 µM (inactive) | 66.5 µM (inactive) | 11.9 µM (inactive) |  | 15.9 µM (inactive) | 26 µM (inactive) | 15.3 µM (inactive) | 14.1 µM (inactive) | 14.9 µM (inactive) | 15 µM (inactive) | 18.5 µM (inactive) | 23.1 µM (inactive) | 23.8 µM (inactive) |  |
| COC(CC1(/C=C/O[Si](C(C)C)(C(C)C)C(C)C)C(=O)N(C)c2ccccc21)OC (stereo not drawn) |  | > 100 µM (inactive) | 33.4 µM (inactive) | > 100 µM (inactive) | 62.5 µM (inactive) | 45.2 µM (inactive) | 22.9 µM (inactive) | 68.2 µM (inactive) |  | 58.1 µM (inactive) | 35.7 µM (inactive) | 39.4 µM (inactive) | 15.9 µM (inactive) | > 100 µM (inactive) | 18.4 µM (inactive) | 36.8 µM (inactive) | 55.3 µM (inactive) | 42.1 µM (inactive) |  |
| COc1cc(C(C)(C)C)c(OC(=O)/C=C/C(=O)O/C=C/[N+](=O)[O-])c(C(C)(C)C)c1 | 85.3 µM (inactive) |  | 24.2 µM (inactive) | 44.7 µM (inactive) | 30.5 µM (inactive) | 21.4 µM (inactive) | 23.4 µM (inactive) | 28.1 µM (inactive) | 29.9 µM (inactive) | > 100 µM (inactive) | > 100 µM (inactive) | 16.8 µM (inactive) | 28.6 µM (inactive) | > 100 µM (inactive) | 34.4 µM (inactive) | 13.5 µM (inactive) | 41.8 µM (inactive) | 19.4 µM (inactive) |  |
| Nc1nc(N)nc(-c2cnccn2)n1 | > 100 µM (inactive) | > 100 µM (inactive) | > 100 µM (inactive) |  | > 100 µM (inactive) | > 100 µM (inactive) | > 100 µM (inactive) | > 100 µM (inactive) | > 100 µM (inactive) | > 100 µM (inactive) | > 100 µM (inactive) | > 100 µM (inactive) |  | 57.1 µM (inactive) | > 100 µM (inactive) | > 100 µM (inactive) | > 100 µM (inactive) | > 100 µM (inactive) | > 100 µM (inactive) |
| CC/C=C/c1cc2c(cc1O)CCC1C2CC[C@@]2(C)C1CC[C@@H]2O (stereo partly drawn) | 1.03 µM (active) | 11.3 µM (inactive) | 0.904 µM (active) | 0.199 µM (active) | 2.14 µM (inactive) | 4.12 µM (inactive) | 0.667 µM (active) | 6.03 µM (inactive) | 0.475 µM (active) |  | 2.43 µM (inactive) | 4.32 µM (inactive) | 1.65 µM (inactive) | 12.5 µM (inactive) | 2.34 µM (inactive) | 1.08 µM (active) | 2.86 µM (inactive) | 3.33 µM (inactive) |  |
| [O-][S+](Nc1ccccc1)c1cccc(Cl)c1 (stereo not drawn) | > 100 µM (inactive) | 68.5 µM (inactive) | 60.5 µM (inactive) | > 100 µM (inactive) | 25.5 µM (inactive) | 39.7 µM (inactive) | 34.6 µM (inactive) | 60.4 µM (inactive) | 57.3 µM (inactive) | > 100 µM (inactive) |  | 34.2 µM (inactive) | 86.3 µM (inactive) | > 100 µM (inactive) | > 100 µM (inactive) | > 100 µM (inactive) |  | 42.7 µM (inactive) |  |
| CCOC(C[C@H](O[Si](C)(C)C(C)(C)C)[C@H]1COC(=S)S1)OCC | > 100 µM (inactive) | > 100 µM (inactive) | 52.6 µM (inactive) |  | 48.5 µM (inactive) | 70.5 µM (inactive) |  | 35 µM (inactive) | 23.3 µM (inactive) | 43.6 µM (inactive) |  | 50.7 µM (inactive) |  |  | > 100 µM (inactive) |  |  | 53.5 µM (inactive) |  |
| COc1cc2nc(-c3cccs3)nc(N3C(c4ccc(O)cc4)=NNC(=O)c4ccccc43)c2cc1OC | 30.5 µM (inactive) | 25.4 µM (inactive) | 22.3 µM (inactive) |  | 23.7 µM (inactive) | 55.6 µM (inactive) | 17.7 µM (inactive) | 19 µM (inactive) | 86.9 µM (inactive) | 56.5 µM (inactive) | 38 µM (inactive) | 32.7 µM (inactive) | 42.9 µM (inactive) | 28.8 µM (inactive) | 52.8 µM (inactive) | 36.7 µM (inactive) | 29.2 µM (inactive) | 27.5 µM (inactive) | 21 µM (inactive) |
| OCC(O)COCn1cc(Cn2ncc3c(SCc4ccccc4)ncnc32)nn1 (stereo not drawn) | > 100 µM (inactive) | > 100 µM (inactive) | > 100 µM (inactive) |  | > 100 µM (inactive) | > 100 µM (inactive) | > 100 µM (inactive) | > 100 µM (inactive) | 27.2 µM (inactive) | > 100 µM (inactive) | > 100 µM (inactive) | > 100 µM (inactive) |  | > 100 µM (inactive) | > 100 µM (inactive) | > 100 µM (inactive) | > 100 µM (inactive) | > 100 µM (inactive) | > 100 µM (inactive) |
| Cc1c2cc[n+](C)cc2c(C)c2c1[nH]c1ccc(Oc3ccccc3)cc12 |  | 2.89 µM (inactive) | 1.61 µM (inactive) |  | 2.48 µM (inactive) | 0.272 µM (active) |  | 5.08 µM (inactive) |  | 0.518 µM (active) | 1.14 µM (inactive) | 0.736 µM (active) |  | 2.51 µM (inactive) | 0.518 µM (active) |  |  | 0.53 µM (active) |  |
| O=S(=O)(c1ccccc1)n1cc(C[P+](c2ccccc2)(c2ccccc2)c2ccccc2)c2ccccc21 | 3.69 µM (inactive) | 2.7 µM (inactive) | 3.57 µM (inactive) |  | 15.3 µM (inactive) | 10.9 µM (inactive) |  | 3.38 µM (inactive) | 2.36 µM (inactive) | 3.19 µM (inactive) | 2.5 µM (inactive) | 3.6 µM (inactive) |  | 17.2 µM (inactive) | 5.04 µM (inactive) |  |  | 2.99 µM (inactive) |  |
| CCN(CC)c1oc(N(CC)CC)c(C(=O)Nc2ccccn2)c(=O)c1C(C)=O | > 100 µM (inactive) | > 100 µM (inactive) |  |  | > 100 µM (inactive) | > 100 µM (inactive) |  | > 100 µM (inactive) | > 100 µM (inactive) | > 100 µM (inactive) | > 100 µM (inactive) | > 100 µM (inactive) |  | > 100 µM (inactive) | > 100 µM (inactive) |  |  | > 100 µM (inactive) |  |
| COc1cc(S(=O)(=O)Nc2nc(-c3ccc(N4C(=O)CSC4c4cccs4)cc3)cs2)ccc1Cl (stereo not drawn) | > 100 µM (inactive) | > 100 µM (inactive) | 21.8 µM (inactive) | 43.4 µM (inactive) | > 100 µM (inactive) | > 100 µM (inactive) | > 100 µM (inactive) | 22.6 µM (inactive) | 30.9 µM (inactive) | > 100 µM (inactive) | > 100 µM (inactive) | 75.5 µM (inactive) | 97.1 µM (inactive) | > 100 µM (inactive) | 81.1 µM (inactive) | 43.5 µM (inactive) | 36.8 µM (inactive) | 33.2 µM (inactive) |  |
